{"source": "patent US8476255B2", "about": "“Histone deacetylase inhibitors” (Orchid Chemicals & Pharmaceuticals Limited, priority 2007, dated 2013)", "key": {"acetylated Tubulin": {"system": "acetylated Tubulin", "assay": "Tubulin acetylation, sandwich ELISA in HCT116 lysate", "format": "cell-based", "conditions": "HCT116, 4 hours", "procedure": "(§1) Acetylated histone (H3), acetylated Tubulin and p21 levels were detected in cell lysate by sandwich ELISA method (Cell Signaling Technology, USA, Cat No: 7232, 7204 & 7167 respectively) by following manufacturer's instructions. Briefly, colon cancer cells (HCT116. 10,000/well) were incubated with test compound (1 and 10 μM) or medium (control) for 4 hours at 37° C. in CO2 incubator. The incubation lasted 18 hours for p21 induction. After incubation, cell lysates were prepared in cell lysis buffer by sonication on ice. The lysates were collected after centrifugation and subjected to ELISA test procedure. 100 μL of each diluted cell lysate in dilution buffer (1:1) was added to appropriate capture antibody coated microwells and incubated overnight at 4° C. After washing, 100 μL of detection antibody was added for 1 hour at 37° C. After second washing, 100 μL of HRP-linked secondary antibody was added for 30 min at 37° C. Finally, after appropriate washing, 100 μL of TMB substrate was added for 10 min at 37° C. followed by 100 μL of stop solution. The absorbance of individual wells was read using a spectrophotometer at 450 nm (A450)."}, "HCT116 (colon) xenograft": {"system": "HCT116 (colon) xenograft", "format": "in vivo", "conditions": "oral gavage once every day for 21 days, vs vehicle treated control", "procedure": "Experiments were carried out using 6-8 week old female athymic SCID (Severe Combined Immune Deficient) mice. The mice were housed in Individually Ventilated Cages (IVC) at constant temperature (22±3° C.) and humidity (50±20%). They had free access to food and water. Tumors were obtained from ATCC, USA and maintained in vivo by subcutaneous (s.c.) passage of tumor fragments (appx 30 mg) in healthy mice according to standard reported procedures. All the animal protocols were approved by the Institutional Animal Ethics Committee, ORLL, Chennai. Each experimental group included 6-8 mice bearing s.c. tumors. Tumors were implanted into the axillary region by puncturing using a Trocar, and tumor growth was monitored by measurement of tumor diameters with a Vernier caliper. Tumor Volume (TV) was calculated according to the following formula: TV(mm^3)=L×W^2×0.5, […]\nTest compound was administered by oral gavage in a volume of 5-10 ml/kg. […] Tumor size was measured twice every week and body weight was recorded daily prior to dosing.\nTest compound (T) efficacy was assessed by calculating several parameters based on tumor volume (TV) with respect to untreated control (C). Parameters routinely assessed were T/C % [TVtest/TVcontrol×100] and Tumor Volume Inhibition (TVI=1−T/C %). […]\nToxic effects of drug treatment were assessed by Body Weight Loss %. […]"}, "Acetylated histone (H3)": {"system": "Acetylated histone (H3)", "assay": "Histone (H3) acetylation, sandwich ELISA in HCT116 lysate", "format": "cell-based", "conditions": "HCT116, 4 hours", "procedure": "as §1"}, "U251 (glioma) cells": {"system": "U251 (glioma) cells", "assay": "Anti-cancer screen (MTT), U251", "format": "cell-based", "conditions": "Homo sapiens, U-251, U251, 48 hours, MTT", "procedure,_shortened": "(§2)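 Five-point MTT cytotoxicity test with 48 h compound exposure (final 0.01–100 μM, triplicate) in DMEM with 10% FBS, using a T0 viability plate and SAHA as reference standard.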"}, "[1]": {"system": "NCIH460, HCT116 and U251 cells", "assay": "Anti-cancer screen, mean GI50 over cell lines", "format": "cell-based", "conditions": "mean over cell lines; read-out: Cell growth inhibition Mean GI50", "procedure,_shortened": "as §2"}, "[2]": {"system": "HDAC (Mouse Liver Extract)", "assay": "HDAC inhibition assay using Boc-Lys(Ac)-AMC substrate", "format": "biochemical", "conditions": "mouse liver enzyme", "procedure,_shortened": "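Released AMC measured at 360 nm excitation, 460 nm emission after 15-30 min trypsin development at 37° C. Preceding deacetylation: mouse liver extract with acetylated-lysine AMC substrate, 30 min at 37° C after 5-min preincubation; blanks were buffer alone and substrate alone.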"}}}
{"smiles": "COc1ccc(/C=C(/C(=O)NCc2ccc(C(=O)Nc3ccccc3N)cc2)c2ccc(F)cc2)cc1OC", "note": "[Compound 19, N-(2-Aminophenyl)-4-((3-(3,4-dimethoxyphenyl)-2-(4-fluorophenyl)acrylamido)methyl)benzamide]", "values": [{"measurement": "Tubulin acetylation (Fold increase)", "setting": "acetylated Tubulin; 1 μM", "result": 1.9, "unit": "Fold increase"}, {"measurement": "Tubulin acetylation (Fold increase)", "setting": "acetylated Tubulin; 10 μM", "result": 4.4, "unit": "Fold increase"}, {"measurement": "maximum Tumor Volume Inhibition (TVI)", "setting": "HCT116 (colon) xenograft", "result": 42, "unit": "%"}, {"measurement": "H3 acetylation (Fold increase)", "setting": "Acetylated histone (H3); 1 μM", "result": 4, "unit": "Fold increase"}, {"measurement": "H3 acetylation (Fold increase)", "setting": "Acetylated histone (H3); 10 μM", "result": 16, "unit": "Fold increase"}, {"measurement": "GI50", "setting": "U251 (glioma) cells; read-out: Cell growth inhibition U251 (Glioma) GI50", "result": 300, "unit": "nM"}, {"measurement": "LC50 (concentration giving 50% net cell kill relative to the time-zero cell count)", "setting": "U251 (glioma) cells; read-out: Cell growth inhibition U251 (Glioma) LC50", "result": 4.8, "unit": "µM"}, {"measurement": "IC (TGI)", "setting": "U251 (glioma) cells; read-out: Cell growth inhibition U251 (Glioma) TGI", "result": 1.8, "unit": "µM"}, {"measurement": "GI50", "setting": "[1]", "result": 1000, "unit": "nM"}, {"measurement": "HDAC inhibition % (1 μM)", "setting": "[2]; 1 μM", "result": 29.7, "unit": "%"}, {"measurement": "HDAC inhibition % (10 μM)", "setting": "[2]; 10 μM", "result": 52.9, "unit": "%"}, {"measurement": "IC50", "setting": "[2]", "result": 8.6, "unit": "µM"}]}
